Data reported in ChEMBL document CHEMBL6078666, “Discovery of Novel Coumarin Pleuromutilin Derivatives as Potent Anti-MRSA Agents” (J Med Chem, 2024).
Values after ≈ are worked out from the molar mass of the structure shown.

What was measured:
Format in all cases: functional
Staphylococcus aureus [1] = test: Ratio of MBC to MIC against Staphylococcus aureus ATCC 43300
Enterococcus faecium [2] = test: Antibacterial activity against vancomycin-resistant Enterococcus faecium ATCC 700221 assessed as bacterial growth inhibition measured after 20 hrs by broth dilution method
[3] = test system: Staphylococcus epidermidis; test: Ratio of MBC to MIC against methicillin-resistant Staphylococcus epidermidis clinical isolate 202409454
Enterococcus faecium [4] = test: Ratio of MBC to MIC against vancomycin-resistant Enterococcus faecium ATCC 700221
Streptococcus pneumoniae [5] = test: Ratio of MBC to MIC against penicillin-intermediate Streptococcus pneumoniae ATCC 49619
Enterococcus faecium [6] = test: Ratio of MBC to MIC against vancomycin-resistant Enterococcus faecium clinical isolate 202308456
Staphylococcus aureus [7] = test: Antibacterial activity against methicillin-resistant Staphylococcus aureus clinical isolate 202311772 assessed as bacterial growth inhibition measured after 20 hrs by broth dilution method
Staphylococcus aureus [8] = test: Antibacterial activity against methicillin-resistant Staphylococcus aureus ATCC 43300 assessed as bacterial growth inhibition measured after 20 hrs by broth dilution method
Enterococcus faecium [9] = test: Antibacterial activity against vancomycin-resistant Enterococcus faecium ATCC 51559 assessed as bacterial growth inhibition measured after 20 hrs by broth dilution method
Enterococcus faecium [10] = test: Antibacterial activity against vancomycin-resistant Enterococcus faecium clinical isolate 202308456 assessed as bacterial growth inhibition measured after 20 hrs by broth dilution method
Streptococcus pneumoniae [11] = test: Antibacterial activity against penicillin-resistant Streptococcus pneumoniae ATCC 51916 assessed as bacterial growth inhibition measured after 20 hrs by broth dilution method
[12] = test system: Staphylococcus epidermidis; test: Antibacterial activity against methicillin-resistant Staphylococcus epidermidis clinical isolate 202409139 assessed as bacterial growth inhibition measured after 20 hrs by broth dilution method
Enterococcus faecium [13] = test: Ratio of MBC to MIC against vancomycin-resistant Enterococcus faecium ATCC 51559
[14] = test system: Staphylococcus epidermidis; test: Antibacterial activity against methicillin-resistant Staphylococcus epidermidis clinical isolate 202409454 assessed as bacterial growth inhibition measured after 20 hrs by broth dilution method
[15] = test system: Staphylococcus epidermidis; test: Antibacterial activity against Staphylococcus epidermidis ATCC 51625 assessed as bacterial growth inhibition measured after 20 hrs by broth dilution method
Staphylococcus aureus [16] = test: Antibacterial activity against methicillin-resistant Staphylococcus aureus clinical isolate 202405157 assessed as bacterial growth inhibition measured after 20 hrs by broth dilution method
Streptococcus pneumoniae [17] = test: Antibacterial activity against penicillin-intermediate Streptococcus pneumoniae ATCC 49619 assessed as bacterial growth inhibition measured after 20 hrs by broth dilution method
Staphylococcus aureus [18] = test: Ratio of MBC to MIC against methicillin-resistant Staphylococcus aureus clinical isolate 202405157
Streptococcus pneumoniae [19] = test: Ratio of MBC to MIC against penicillin-resistant Streptococcus pneumoniae ATCC 51916
[20] = test system: Staphylococcus epidermidis; test: Ratio of MBC to MIC against Staphylococcus epidermidis ATCC 51625
Staphylococcus aureus [21] = test: Antibacterial activity against methicillin-resistant Staphylococcus aureus ATCC 33591 assessed as bacterial growth inhibition measured after 20 hrs by broth dilution method
Staphylococcus aureus [22] = test: Antibacterial activity against methicillin-resistant Staphylococcus aureus clinical isolate 202313160 assessed as bacterial growth inhibition measured after 20 hrs by broth dilution method
Staphylococcus aureus [23] = test: Ratio of MBC to MIC against methicillin-resistant Staphylococcus aureus clinical isolate 202311772
Staphylococcus aureus [24] = test: Ratio of MBC to MIC against methicillin-resistant Staphylococcus aureus ATCC 33591
Staphylococcus aureus [25] = test: Ratio of MBC to MIC against methicillin-resistant Staphylococcus aureus clinical isolate 202313160
[26] = test system: Staphylococcus epidermidis; test: Ratio of MBC to MIC against methicillin-resistant Staphylococcus epidermidis clinical isolate 202409139

Row | SMILES | Ratio (Staphylococcus aureus [1]) | MIC (Enterococcus faecium [2]) | Ratio [3] | Ratio (Enterococcus faecium [4]) | Ratio (Streptococcus pneumoniae [5]) | Ratio (Enterococcus faecium [6]) | MIC (Staphylococcus aureus [7]) | MIC (Staphylococcus aureus [8]) | MIC (Enterococcus faecium [9]) | MIC (Enterococcus faecium [10]) | MIC (Streptococcus pneumoniae [11]) | MIC [12] | Ratio (Enterococcus faecium [13]) | MIC [14] | MIC [15] | MIC (Staphylococcus aureus [16]) | MIC (Streptococcus pneumoniae [17]) | Ratio [20] | MIC (Staphylococcus aureus [21]) | MIC (Staphylococcus aureus [22]) | also measured
1 | C=C[C@]1(C)C[C@@H](OC(=O)CSCCOc2cc(=O)oc3cc(OC)ccc23)[C@]2(C)[C@H](C)CC[C@]3(CCC(=O)[C@H]32)[C@@H](C)[C@@H]1O | >4 | 0.063 µg/mL (≈ 0.103 µM) | >1 | >4 | >4 | >4 | 0.125 µg/mL (≈ 0.204 µM) | 0.125 µg/mL (≈ 0.204 µM) | 0.125 µg/mL (≈ 0.204 µM) | 0.125 µg/mL (≈ 0.204 µM) | 0.063 µg/mL (≈ 0.103 µM) | 0.125 µg/mL (≈ 0.204 µM) | 2 | 0.25 µg/mL (≈ 0.408 µM) | 0.031 µg/mL (≈ 0.0506 µM) | 0.125 µg/mL (≈ 0.204 µM) | 0.125 µg/mL (≈ 0.204 µM) | >4 | 0.063 µg/mL (≈ 0.103 µM) | 0.125 µg/mL (≈ 0.204 µM) | Ratio (Staphylococcus aureus [18]): 4; Ratio (Streptococcus pneumoniae [19]): 2
2 | C=C[C@]1(C)C[C@@H](OC(=O)CSc2cc(=O)oc3cc(Cl)ccc23)[C@]2(C)[C@H](C)CC[C@]3(CCC(=O)[C@H]32)[C@@H](C)[C@@H]1O | 4 | 0.031 µg/mL (≈ 0.0541 µM) | 2 | 2 | 4 | >4 | 0.031 µg/mL (≈ 0.0541 µM) | 0.063 µg/mL (≈ 0.11 µM) | 0.063 µg/mL (≈ 0.11 µM) | 0.063 µg/mL (≈ 0.11 µM) | 0.125 µg/mL (≈ 0.218 µM) | 0.125 µg/mL (≈ 0.218 µM) | 2 | 0.125 µg/mL (≈ 0.218 µM) | 0.031 µg/mL (≈ 0.0541 µM) | 0.25 µg/mL (≈ 0.436 µM) | 0.063 µg/mL (≈ 0.11 µM) | >4 | 0.031 µg/mL (≈ 0.0541 µM) | 0.125 µg/mL (≈ 0.218 µM) | Ratio (Staphylococcus aureus [23]): >4; Ratio (Staphylococcus aureus [24]): >4; Ratio (Staphylococcus aureus [18]): >4; Ratio (Staphylococcus aureus [25]): >4
3 | C=C[C@]1(C)C[C@@H](OC(=O)CSc2cc(=O)oc3cc(Br)ccc23)[C@]2(C)[C@H](C)CC[C@]3(CCC(=O)[C@H]32)[C@@H](C)[C@@H]1O | >4 | 0.031 µg/mL (≈ 0.0502 µM) | – | 2 | >4 | 2 | 0.031 µg/mL (≈ 0.0502 µM) | 0.063 µg/mL (≈ 0.102 µM) | 0.063 µg/mL (≈ 0.102 µM) | 0.063 µg/mL (≈ 0.102 µM) | 0.125 µg/mL (≈ 0.202 µM) | 0.125 µg/mL (≈ 0.202 µM) | 1 | 0.125 µg/mL (≈ 0.202 µM) | 0.031 µg/mL (≈ 0.0502 µM) | 0.063 µg/mL (≈ 0.102 µM) | 0.063 µg/mL (≈ 0.102 µM) | 4 | 0.031 µg/mL (≈ 0.0502 µM) | 0.125 µg/mL (≈ 0.202 µM) | Ratio (Staphylococcus aureus [23]): 1; Ratio [26]: >4; Ratio (Staphylococcus aureus [18]): 2; Ratio (Staphylococcus aureus [25]): 4
4 | C=C[C@]1(C)C[C@@H](OC(=O)CSc2cc(=O)oc3cc(F)ccc23)[C@]2(C)[C@H](C)CC[C@]3(CCC(=O)[C@H]32)[C@@H](C)[C@@H]1O | 4 | 0.031 µg/mL (≈ 0.0557 µM) | 2 | 1 | 2 | 1 | 0.031 µg/mL (≈ 0.0557 µM) | 0.063 µg/mL (≈ 0.113 µM) | 0.031 µg/mL (≈ 0.0557 µM) | 0.031 µg/mL (≈ 0.0557 µM) | 0.125 µg/mL (≈ 0.225 µM) | 0.125 µg/mL (≈ 0.225 µM) | 1 | 0.063 µg/mL (≈ 0.113 µM) | 0.031 µg/mL (≈ 0.0557 µM) | 0.063 µg/mL (≈ 0.113 µM) | 0.063 µg/mL (≈ 0.113 µM) | >4 | 0.031 µg/mL (≈ 0.0557 µM) | 0.063 µg/mL (≈ 0.113 µM) | Ratio (Staphylococcus aureus [23]): 2; Ratio (Streptococcus pneumoniae [19]): 4
5 | C=C[C@]1(C)C[C@@H](OC(=O)CSc2cc(=O)oc3ccc([N+](=O)[O-])cc23)[C@]2(C)[C@H](C)CC[C@]3(CCC(=O)[C@H]32)[C@@H](C)[C@@H]1O | >4 | 0.031 µg/mL (≈ 0.0531 µM) | 2 | 2 | >4 | 1 | 0.031 µg/mL (≈ 0.0531 µM) | 0.063 µg/mL (≈ 0.108 µM) | 0.063 µg/mL (≈ 0.108 µM) | 0.125 µg/mL (≈ 0.214 µM) | 0.25 µg/mL (≈ 0.428 µM) | 0.063 µg/mL (≈ 0.108 µM) | 2 | 0.125 µg/mL (≈ 0.214 µM) | 0.031 µg/mL (≈ 0.0531 µM) | 0.063 µg/mL (≈ 0.108 µM) | 0.125 µg/mL (≈ 0.214 µM) | >4 | 0.031 µg/mL (≈ 0.0531 µM) | 0.063 µg/mL (≈ 0.108 µM) | Ratio (Staphylococcus aureus [25]): 4
